Patent US20130085178A1, “COMPOSITION FOR TREATING BONE DISEASE COMPRISING A GLYCEOLLIN AS AN ACTIVE INGREDIENT” (KYUNGPOOK NATIONAL UNIVERSITY INDUSTRY-ACADEMIC COOPERATION …, priority 2010, published 2013)
Entries after “also recorded” stand apart in the source; their conditions may differ. Peptide text beside a SMILES is read from it. * marks the point of attachment. Cbz = O=C(OCc1ccccc1)*

Tests used:
Runx2 = Runx2 protein and mRNA level in MC3T3E1 cells during induction of differentiation; assay type: cell-based, mouse
Procedure: (§1) Osteoblasts isolated from calvarial of 18.5 days old mice and mouse MC3T3E1 cells were cultured in alpha-MEM containing 10% FBS at 37° C. in a humidified atmosphere containing 5% CO2. To induce differentiation of osteoblasts and MC3T3E1 cells, 50 μg/ml of ascorbic acid and 10 mM of beta-glycerophosphate are added to alpha-MEM containing 10% FBS. RAW264.7 (murine monocyte/macrophage) cells were cultured in D-MEM containing 10% FBS, and RANKL is added to alpha-MEM containing 10% FBS to induce differentiation to osteoclasts.
(§2) MC3T3E1 cells were treated with 0, 5, 10, 25 and 50 μM of glyceollin during induction of cellular differentiation. RAW264.7 cells were treated with 0, 5, 10 and 25 μM of glyceollin during induction of cellular differentiation. Osteoblasts isolated from mouse calvarial were treated with 0, 10 and 20 μM of glyceollin during induction of cellular differentiation. Osteoporosis mice induced by high dose vitamin D were daily injected 0, 0.5 and 5 μg/kg of glyceollin for 9 days.
(§3) To investigate the function of glyceollin on osteoblasts proliferation, morphology and number of glyceollin-treated MC3T3E1 cells were analyzed and MTT analysis was carried out.
To investigate whether the decrease of Runx2 protein is due to decrease of Runx2 mRNA, mRNA expression patterns were measured after treatment of glyceollin.
The Runx2 protein level decreased by glyceollin was recovered by MG132 (FIG. 1f).

MC3T3E1 cells = assay: Osteoblast proliferation: morphology, cell number and MTT analysis of glyceollin-treated MC3T3E1 cells; assay type: cell-based, mouse; conditions: vs untreated cells
Procedure: as §1, §3

[1] = tested on: osteoblasts isolated from mouse calvarial; assay: Proteins and mRNAs related to osteoblast differentiation (Runx2, osteocalcin, Rankl, Opg) in osteoblasts isolated from mouse calvarial; assay type: cell-based
Procedure: as §1, §2
Proteins and mRNAs related to osteoblast differentiation were measured in osteoblasts isolated from mouse calvarial which were treated with 0, 10 and 20 μM of glyceollin.
Consequently, Rankl/Opg ratio was decreased by glyceollins in osteoblast differentiation (FIG. 2c).

[2] = tested on: osteoblasts isolated from mouse calvarial; assay: Osteoblast differentiation by ALP staining, Alizarin Red staining and calcium contents; assay type: cell-based; conditions: 0, 10 and 20 μM glyceollin
Procedure: as §1, §2
Osteoblasts isolated from mouse calvarial were treated with 0, 10 and 20 μM of glyceollin during induction of cellular differentiation, and differentiation was analyzed by ALP staining (7 days after differentiation) and Alizarin Red staining (21 days after differentiation).
In addition, calcium contents of osteoblasts (21 days after differentiation) were measured and reduction of calcium was observed as glyceollin concentration increased (FIG. 3c).

RAW264.7 cells = assay: Differentiation of RAW264.7 cells to osteoclasts by TRAP staining; assay type: cell-based, murine; conditions: RANKL-induced, 0, 5, 10 and 25 μM glyceollin, TRAP stained 4 days after
Procedure: as §1, §2
RAW264.7 cells were treated with 0, 5, 10 and 25 μM of glyceollin during induction of differentiation, and then TRAP stained 4 days after to analyze osteoclasts.

osteoporosis mouse model = assay: Osteoporosis mouse model induced by high dose vitamin D (micro CT, Trichrome staining, TRAP staining of calvarial); assay type: in vivo, mice (C57BL/6)
Procedure: Normal mice (C57BL/6) were subcutaneously injected with high dose vitamin D (60×10^4 IU/kg) to obtain osteoporosis mouse model, and monitored during 10 days after first injection. High dose vitamin D activates osteoclasts to reduce mouse bone mass.
as §2
To elucidate in vivo inhibitory effect of glyceollin on differentiation of osteoclasts which had been confirmed in vitro, osteoporosis mouse model injected with high dose vitamin D one time a day for 3 days. The mice treated with glyceollins one time a day for 9 days were sacrificed at 10 days after first injection and calvarial was observed by micro CT analysis, Trichrome staining and TRAP staining.

[3] = 10 and 20 μM glyceollin during cellular proliferation
[4] = mouse calvarial osteoblasts, 0, 10 and 20 μM glyceollin
[5] = mouse calvarial osteoblasts, real-time PCR, 0, 10 and 20 μM glyceollin, listed as glyceollins
[6] = calvarial micro CT, 0, 0.5 and 5 μg/kg glyceollin daily for 9 days, sacrificed at 10 days
[7] = calvarial, osteoporosis mouse model by high dose vitamin D

CC(C)C[C@@H](C=O)NC(=O)[C@H](CC(C)C)NC(=O)[C@H](CC(C)C)NC(=O)OCc1ccccc1 [MG132, reference compound] (Cbz-Leu-Leu-Leu-aldehyde)
Runx2 protein level decreased by glyceollin, after further treatment with proteasome inhibitor (Runx2; MC3T3E1 cells, 20 μM glyceollin plus MG132 vs 20 μM glyceollin only): recovered

glyceollin
morphology of MC3T3E1 cells (MC3T3E1 cells; 20 μM glyceollin during cellular proliferation): similar; also recorded: no significant difference | MTT assay for MC3T3-E1 cells (MC3T3E1 cells; [3]): similar; also recorded: no significant difference | number of MC3T3E1 cells (MC3T3E1 cells; [3]): similar; also recorded: no significant difference | Runx2 protein level (Runx2; MC3T3E1 cells, 0, 5, 10, 25 and 50 μM glyceollin during induction of differentiation): decreased as the concentration of glyceollin increased | Runx2 mRNA level (Runx2; MC3T3E1 cells, 10 and 20 μM glyceollin during induction of differentiation): not changed; also recorded: not affected | Runx2 mRNA level [1, 4]: not changed; also recorded: not affected | osteocalcin mRNA level (differentiation marker of osteoblasts) [1, 4]: decreased according to the concentration of glyceollin; also recorded: Dose-dependent reduction | Runx2 protein level ([1]; mouse calvarial osteoblasts, 0, 10 and 20 μM glyceollin, D21): decreased by glyceollin in dose-dependent manner | Rankl/Opg ratio ([1]; mouse calvarial osteoblasts, osteoblast differentiation): decreased | Rankl mRNA level ([1]; mouse calvarial osteoblasts, real-time PCR, 0, 10 and 20 μM glyceollin): decreased according to the concentration of glyceollin | Opg mRNA level [1, 5]: not affected or slightly increased | Rankl mRNA level [1, 5]: down-regulated | differentiation of osteoblast by ALP staining ([2]; 7 days after differentiation): inhibited by glyceollin in dose-dependent manner | calcium contents of osteoblasts ([2]; 21 days after differentiation): decreased as the concentration of glyceollin increased; also recorded: reduction | differentiation of osteoblast by Alizarin Red staining ([2]; 21 days after differentiation): inhibited according to the concentration of glyceollin; also recorded: inhibited by glyceollin in dose-dependent manner | differentiation to osteoclasts (TRAP stained osteoclasts) (RAW264.7 cells): inhibited as the concentration of glyceollin increased; also recorded: reduced by glyceollin in dose-dependent manner | osteoporosis of mouse calvarial mediated by high dose vitamin D (BMC, BMD and TMD analysis after CT) (osteoporosis mouse model; administration of glyceollin): recovered | bone mineral contents (BMC) (osteoporosis mouse model; [6]): increased by glyceollin in dose-dependent manner | bone mineral density (BMD) (osteoporosis mouse model; [6]): increased by glyceollin in dose-dependent manner | tissue mineral contents (TMC) (osteoporosis mouse model; [6]): increased by glyceollin in dose-dependent manner | collagen generation (Trichrome staining) (osteoporosis mouse model; [7]): increased | number of osteoclasts (TRAP staining) (osteoporosis mouse model; [7]): decrease
